# Test results from USRE29225E, “N-substituted derivatives of 3-carboxamide and 3-thiocarboxamide” (The Dow Chemical Company, priority 1976, dated 1977).
# Read-outs that look alike come from different tables or passages of the source.
# Tests used:
# Format in all cases: cell-based
# S. aureus = test: agar dilution test, S. aureus; conditions: Staphylococcus aureus, complete growth inhibition, read-out: Minimum Inhibitory Concentration, Sa
# Description: (§1) In representative operations, the products of the invention when tested for antimicrobial activity using conventional agar dilution tests gave complete growth inhibition against the following organisms at the indicated concentrations in parts per million: […]
# C. pelliculosa = test: agar dilution test, C. pelliculosa; conditions: Hansenula anomala, read-out: Minimum Inhibitory Concentration, Cp
# Description: as §1
# S. typhosa = test: agar dilution test, S. typhosa; conditions: read-out: Minimum Inhibitory Concentration, St
# Description: as §1
# A. aerogenes = test: agar dilution test, A. aerogenes; conditions: Klebsiella aerogenes, read-out: Minimum Inhibitory Concentration, Aa
# Description: as §1
# S. cerevisiae = test: agar dilution test, S. cerevisiae; conditions: Saccharomyces cerevisiae, read-out: Minimum Inhibitory Concentration, Sc
# Description: as §1
# P. aeruginosa = test: agar dilution test, P. aeruginosa; conditions: Pseudomonas aeruginosa, read-out: Minimum Inhibitory Concentration, Pa
# Description: as §1
# P. chrysogenum = test: agar dilution test, P. chrysogenum; conditions: Penicillium chrysogenum, read-out: Minimum Inhibitory Concentration, Pen
# Description: as §1
# A. niger = test: agar dilution test, A. niger; conditions: Aspergillus niger, read-out: Minimum Inhibitory Concentration, An
# Description: as §1
# [1] = C. pelliculosa, agar dilution, complete growth inhibition
# [2] = A. aerogenes, agar dilution, complete growth inhibition
# [3] = S. cerevisiae, agar dilution, complete growth inhibition
# [4] = P. aeruginosa, agar dilution, complete growth inhibition
# [5] = P. chrysogenum, agar dilution, complete growth inhibition
# [6] = A. niger, agar dilution, complete growth inhibition
SMILES,MIC (S. aureus) [µg/mL],MIC (C. pelliculosa; [1]) [µg/mL],MIC (S. typhosa) [µg/mL],MIC (A. aerogenes; [2]) [µg/mL],MIC (S. cerevisiae; [3]) [µg/mL],MIC (P. aeruginosa; [4]) [µg/mL],MIC (P. chrysogenum; [5]) [µg/mL],MIC (A. niger; [6]) [µg/mL],MIC (C. pelliculosa) [µg/mL],"MIC (S. typhosa; S. typhosa, agar dilution, complete growth inhibition) [µg/mL]",MIC (A. aerogenes) [µg/mL],MIC (S. cerevisiae) [µg/mL],MIC (P. aeruginosa) [µg/mL],MIC (P. chrysogenum) [µg/mL],MIC (A. niger) [µg/mL]
S=C(Nc1ccc(Cl)cc1)N1CN2CN(C/C=C\Cl)CN(C2)C1 [Example 3 j)],75,250,50,75,250,100,100,250,–,–,–,–,–,–,–
Cc1ccc(C)c(NC(=O)N2CN3CN(C/C=C\Cl)CN(C3)C2)c1 [Example 3 c)],75,250,50,75,250,75,250,500,–,–,–,–,–,–,–
"O=C(Nc1ccccc1)N1CN2CN(C/C=C\Cl)CN(C2)C1 [Example 1, N-Phenyl-3-Carboxamide-7-Cis(3-Chloro-2-Propenyl)-1,3,5,7-Tetraazabicyclo(3,3,1)Nonane]",50,250,25,50,250,50,250,500,–,–,–,–,–,–,–
Cc1ccc(NC(=S)N2CN3CN(C/C=C\Cl)CN(C3)C2)cc1C [Example 3 m)],50,250,50,75,250,100,100,250,–,–,–,–,–,–,–
"S=C(Nc1ccccc1)N1CN2CN(C/C=C\Cl)CN(C2)C1 [Example 2, N-Phenyl-3-.[.Thiocarboxamide.]..Iadd.Methanethioamide.Iaddend.-7-Cis-(3-Chloro-2-Propenyl)-1,3,5,7-Tetraazabicyclo(3,3,1)Nonane]",75,> 500,25,50,250,75,500,250,–,–,–,–,–,–,–
S=C(Nc1ccc(Cl)c(Cl)c1)N1CN2CN(C/C=C\Cl)CN(C2)C1 [Example 3 l)],50,250,75,100,250,100,100,250,–,–,–,–,–,–,–
CCCCNC(=O)N1CN2CN(C/C=C\Cl)CN(C2)C1 [Example 3 n)],50,250,25,50,250,75,250,250,–,–,–,–,–,–,–
O=C(Nc1cc(Cl)ccc1Cl)N1CN2CN(C/C=C\Cl)CN(C2)C1 [Example 3 f)],75,250,50,75,250,100,250,500,–,–,–,–,–,–,–
O=C(Nc1ccc(Br)cc1)N1CN2CN(C/C=C\Cl)CN(C2)C1 [Example 3 e)],100,250,25,100,250,250,250,500,–,–,–,–,–,–,–
O=C(Nc1ccc(Cl)cc1)N1CN2CN(C/C=C\Cl)CN(C2)C1 [Example 3 d)],75,250,25,75,250,100,250,500,–,–,–,–,–,–,–
S=C(Nc1ccc(Br)cc1)N1CN2CN(C/C=C\Cl)CN(C2)C1 [Example 3 k)],250,250,75,100,500,250,250,500,–,–,–,–,–,–,–
O=C(NC1CCCCC1)N1CN2CN(C/C=C\Cl)CN(C2)C1 [Example 3 h)],75,250,25,50,250,50,250,500,–,–,–,–,–,–,–
"Cl/C=C\C[N+]12CN3CN(CN(C3)C1)C2.[Cl-] [Cis, cis-1-(3-chloro-2-propenyl)-3,5,7-triaza-1-azoniatricyclo (3,3,1,1^3,7) decane chloride, reference compound]",50,–,–,–,–,–,–,–,500,25,50,250,75,500,> 500
Cc1ccc(NC(=O)N2CN3CN(C/C=C\Cl)CN(C3)C2)cc1 [Example 3 b)],50,250,25,50,250,50,100,250,–,–,–,–,–,–,–
COc1ccc(NC(=O)N2CN3CN(C/C=C\Cl)CN(C3)C2)cc1 [Example 3 a)],50,250,10,75,250,75,250,500,–,–,–,–,–,–,–
CCCCNC(=S)N1CN2CN(C/C=C\Cl)CN(C2)C1 [Example 3 o)],100,> 500,75,100,500,250,500,500,–,–,–,–,–,–,–
O=C(Nc1ccc(Cl)c(Cl)c1)N1CN2CN(C/C=C\Cl)CN(C2)C1 [Example 3 g)],50,250,25,250,250,250,250,500,–,–,–,–,–,–,–
Cc1ccc(S(=O)(=O)NC(=O)N2CN3CN(C/C=C\Cl)CN(C3)C2)cc1 [Example 3 i)],250,500,50,250,500,500,500,> 500,–,–,–,–,–,–,–
